6 molecules from ChEMBL document CHEMBL1143234, “Uncovering false positives on a virtual screening search for cruzain inhibitors” (Bioorg Med Chem Lett, 2008) can be followed below.

Structures are written as SMILES. Calls of active or inactive are those of the source. The calls are words filed in the database; no cut-off is given here.

The target of assay [1] is Cruzipain (Trypanosoma cruzi) (UniProt P25779). Nature of the assay: Inhibition of Trypanosoma cruzi cruzain.
Assay [2] shares this target. The assay can be described thus: Inhibition of Trypanosoma cruzi cruzain upto 7.22 mM.
Assay [3] has the same target. Nature of the assay: Inhibition of Trypanosoma cruzi cruzain upto 38.71 mM.
Assay [4] shares this target. The assay can be described thus: Inhibition of Trypanosoma cruzi cruzain upto 0.67 mM.

Chain of Cruzipain (Trypanosoma cruzi) (P25779 123-467 limits assumed): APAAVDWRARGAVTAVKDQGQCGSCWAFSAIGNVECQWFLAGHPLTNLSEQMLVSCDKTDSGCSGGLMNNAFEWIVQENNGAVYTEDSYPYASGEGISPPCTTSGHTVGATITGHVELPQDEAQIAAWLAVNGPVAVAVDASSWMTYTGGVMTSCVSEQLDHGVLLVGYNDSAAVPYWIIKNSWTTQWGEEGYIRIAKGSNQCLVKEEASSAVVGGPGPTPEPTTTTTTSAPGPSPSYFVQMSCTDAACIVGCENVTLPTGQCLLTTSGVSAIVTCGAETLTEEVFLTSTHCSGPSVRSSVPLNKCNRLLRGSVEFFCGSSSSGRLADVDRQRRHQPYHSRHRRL

`O=C(/C=C/c1cccs1)NC(Cc1ccccc1)c1nc2ccccc2[nH]1` (stereo unspecified) had an Activity in assay [1] of 44.9 µM.

In turn, `N#Cc1c(NC(=O)CC(NC(=O)c2ccccc2Cl)c2ccccc2)sc2c1CCCC2` (stereo unspecified) yielded an Activity in assay [1] of 4.17 µM.

Consider `N#CC1(NC(=O)c2cc3ccccc3oc2=O)CCCCC1`, for which the result in assay [2] was inactive.

Take `N#Cc1ccsc1NC(=O)/C=C/c1cccc(Cl)c1`: the result in assay [3] was inactive.

Molecule `N#Cc1ccccc1NC(=O)C(=O)Nc1ccccc1C#N` registered an Activity in assay [1] of 17.3 µM.

With `O=C(NC(Cc1c[nH]c2ccccc12)C(=O)N/N=C1\CCCN1)c1cccs1` (stereo unspecified), in assay [4], the outcome was inactive.
